Data from patent US9597407B2, “Targeted antimicrobial moieties” (C3 Jian, Inc., priority 2009, dated 2017).
“Also recorded” adds a separate entry of the source.

Tested on: bacteria
Assay: Binding of targeting peptides to microorganisms (Table 3)
Details: preferably 1x PBS; for Target(s) (microorganism bound by the targeting peptide): peptide binding in aqueous buffers varied by peptide solubility; for Target(s): microorganism the targeting peptide binds, binding in aqueous buffers that varied with peptide solubility

Substance | Target(s) (microorganism bound by the targeting peptide) | Target(s)
1T-105 (GEGLPPPVLHLPPPRMSGR; Peptide with targeting and/or antimicrobial activity) [Peptide 1T-105] | S. epidermidis; also recorded: S. gordonii; also recorded: S. mitis; also recorded: S. mutans; also recorded: S. oralis | –
1T-106 (DALRRSRSQGRRHR; Peptide with targeting and/or antimicrobial activity) [Peptide 1T-106] | S. gordonii; also recorded: S. mitis; also recorded: S. mutans; also recorded: S. oralis; also recorded: S. salivarious | –
1T-107 (SPVPRFTAVGGVSRGSP; Peptide with targeting and/or antimicrobial activity) [Peptide 1T-107] | A. naeslundii; also recorded: S. epidermidis; also recorded: S. gordonii; also recorded: S. mitis; also recorded: S. mutans; also recorded: S. oralis; also recorded: S. salivarious; also recorded: S. sanguinis | –
1T-108 (WGPLGPERPLW; Peptide with targeting and/or antimicrobial activity) [Peptide 1T-108] | S. gordonii; also recorded: S. mitis; also recorded: S. mutans; also recorded: S. oralis; also recorded: S. salivarious; also recorded: S. sanguinis | –
1T-109 (VTTNVRQGAGS; Peptide with targeting and/or antimicrobial activity) [Peptide 1T-109] | A. naeslundii; also recorded: S. epidermidis; also recorded: S. gordonii; also recorded: S. mitis; also recorded: S. mutans; also recorded: S. oralis; also recorded: S. salivarious; also recorded: S. sanguinis | –
1T-110 (LAAKTAVCVGRAFM; Peptide with targeting and/or antimicrobial activity) [Peptide 1T-110] | A. naeslundii; also recorded: P. gingivalis; also recorded: S. epidermidis; also recorded: S. gordonii; also recorded: S. mitis; also recorded: S. mutans; also recorded: S. oralis; also recorded: S. sanguinis | –
1T-112 (SDNDGKLILGTSQ; Peptide with targeting and/or antimicrobial activity) [Peptide 1T-112] | S. gordonii | –
1T-113 (HGAHQRTGQRLHHHRGRTVSGCRQNPVAGVDPDEHR; Peptide with targeting and/or antimicrobial activity) [Peptide 1T-113] | S. mitis | –
1T-114 (RQAPGPGLVTITAACSAPGSRSR; Peptide with targeting and/or antimicrobial activity) [Peptide 1T-114] | A. naeslundii; also recorded: P. gingivalis; also recorded: S. epidermidis; also recorded: S. gordonii; also recorded: S. mitis; also recorded: S. mutans; also recorded: S. oralis; also recorded: S. sanguinis | –
1T-117 (GPGVVGPAPFSRLPAHALNL; Peptide with targeting and/or antimicrobial activity) [Peptide 1T-117] | S. mutans | –
1T-119 (SPATQKAPTRAQPSRAPVQDCGDGRPTAAPDDVERLSPR; Peptide with targeting and/or antimicrobial activity) [Peptide 1T-119] | S. gordonii; also recorded: S. mitis; also recorded: S. mutans; also recorded: S. oralis | –
1T-121 (FAKETGFGIGGAQEGWWIIADIYGPNPF; Peptide with targeting and/or antimicrobial activity) [Peptide 1T-121] | S. gordonii; also recorded: S. mitis; also recorded: S. mutans; also recorded: S. oralis; also recorded: S. salivarious; also recorded: S. sanguinis | –
1T-122 (GAIPDPVTHRVDWEEDHQTRPSR; Peptide with targeting and/or antimicrobial activity) [Peptide 1T-122] | S. mitis | –
1T-123 (LVRRNAVAGRSDGLAGAEQLDLVRLQGVL; Peptide with targeting and/or antimicrobial activity) [Peptide 1T-123] | S. gordonii | –
1T-124 (LFDERNKIA; Peptide with targeting and/or antimicrobial activity) [Peptide 1T-124] | S. mitis; also recorded: S. mutans; also recorded: S. oralis | –
1T-125 (DAITGGNPPLSDTDGLRP; Peptide with targeting and/or antimicrobial activity) [Peptide 1T-125] | S. epidermidis; also recorded: S. gordonii; also recorded: S. mutans; also recorded: S. oralis | –
1T-126 (QGLARPVLRRIPL; Peptide with targeting and/or antimicrobial activity) [Peptide 1T-126] | S. gordonii; also recorded: S. mitis; also recorded: S. mutans | –
1T-139 (AVAGAAVGALLGNDARSTAVGAAIGGALGAGAGELTKNK; Peptide with targeting and/or antimicrobial activity) [Peptide 1T-139] | A. naeslundii; also recorded: S. gordonii; also recorded: S. mitis; also recorded: S. mutans; also recorded: S. oralis | –
1T-141 (KKFIILLFILVQGLIFSATKTLSDIIAL; Peptide with targeting and/or antimicrobial activity) [Peptide 1T-141] | F. nucleatum; also recorded: P. gingivalis; also recorded: S. epidermidis; also recorded: S. gordonii; also recorded: S. mitis; also recorded: S. mutans; also recorded: S. oralis; also recorded: S. sanguinis | –
1T-145 (VEAGKRNISLENIEKISKGLGISISELFKYIEEGEDKIG; Peptide with targeting and/or antimicrobial activity) [Peptide 1T-145] | S. mitis; also recorded: S. mutans; also recorded: S. oralis | –

Substance | Target(s) (microorganism bound by the targeting peptide) | Target(s)
1T-154 (YFSFLEIVGMARR; Peptide with targeting and/or antimicrobial activity) [Peptide 1T-154] | P. gingivalis | –
1T-159 (IFSLHHFALICSEMGTFAVSKRAKYKWEVL; Peptide with targeting and/or antimicrobial activity) [Peptide 1T-159] | P. gingivalis | –
1T-170 (AYGKVFSMDIMLSENDKLIVLRISHHSAWH; Peptide with targeting and/or antimicrobial activity) [Peptide 1T-170] | P. gingivalis | –
1T-177 (GTNVPTQILGYSREERFDYEPAPEQR; Peptide with targeting and/or antimicrobial activity) [Peptide 1T-177] | P. gingivalis; also recorded: S. gordonii; also recorded: S. mitis; also recorded: S. mutans; also recorded: S. oralis; also recorded: S. salivarious; also recorded: S. sanguinis | –
1T-185 (HYHFLLEFGFHKGDYLE; Peptide with targeting and/or antimicrobial activity) [Peptide 1T-185] | A. naeslundii; also recorded: F. nucleatum; also recorded: P. gingivalis | –
1T-188 (HRKDVYKK; Peptide with targeting and/or antimicrobial activity) [Peptide 1T-188] | – | S. sanguinis
1T-192 (ILVLLALQVELDSKFQY; Peptide with targeting and/or antimicrobial activity) [Peptide 1T-192] | – | S. sanguinis
1T-193 (LMIFDKHANLKYKYGNRSFGVEAIM; Peptide with targeting and/or antimicrobial activity) [Peptide 1T-193] | – | S. sanguinis
1T-195 (AASGFTYCASNGVWHPY; Peptide with targeting and/or antimicrobial activity) [Peptide 1T-195] | – | S. mutans
1T-196 (KPEKEKLDTNTLMKVVNKALSLFDRLLIKFGA; Peptide with targeting and/or antimicrobial activity) [Peptide 1T-196] | – | F. nucleatum; also recorded: S. sanguinis
1T-198 (MPVSKKRYMLSSAYATALGICYGQVATDEKESEITAIPDLLDYLSVEEYLL; Peptide with targeting and/or antimicrobial activity) [Peptide 1T-198] | – | P. gingivalis; also recorded: S. epidermidis; also recorded: S. gordonii; also recorded: S. mitis; also recorded: S. mutans; also recorded: S. oralis; also recorded: S. sanguinis
1T-199 (RAGRIKKLSQKEAEPFEN; Peptide with targeting and/or antimicrobial activity) [Peptide 1T-199] | – | S. sanguinis
1T-201 (KRKHENVIVAEEMRVIKN; Peptide with targeting and/or antimicrobial activity) [Peptide 1T-201] | – | S. sanguinis
1T-207 (SPLEKYGTGSMTALTFLLGCCLLVLSKKSR; Peptide with targeting and/or antimicrobial activity) [Peptide 1T-207] | – | F. nucleatum; also recorded: S. sanguinis
1T-215 (VCFKDISVFLSPFRGQEVLFCGKAKHSLIYVIGT; Peptide with targeting and/or antimicrobial activity) [Peptide 1T-215] | – | S. sanguinis
1T-216 (FFLNVIAIRIPHF; Peptide with targeting and/or antimicrobial activity) [Peptide 1T-216] | – | S. sanguinis
1T-217 (MLSNVLSRSVVSPNVDIPNSMVILSPLLISISNYH; Peptide with targeting and/or antimicrobial activity) [Peptide 1T-217] | – | F. nucleatum; also recorded: S. sanguinis
1T-218 (KLIFAALGLVFLLIGLRDSRSK; Peptide with targeting and/or antimicrobial activity) [Peptide 1T-218] | – | F. nucleatum; also recorded: S. sanguinis
1T-219 (RNINVSATFITEKSLV; Peptide with targeting and/or antimicrobial activity) [Peptide 1T-219] | – | S. sanguinis
1T-222 (RIEASLISAIMFSMFNAIVKFLQK; Peptide with targeting and/or antimicrobial activity) [Peptide 1T-222] | – | F. nucleatum; also recorded: S. sanguinis
